The values below come from article PMC7773830, “Necator americanus Ancylostoma Secreted Protein-2 (Na-ASP-2) Binds an Ascaroside (ascr#3) in Its Fatty Acid Binding Site” (Frontiers in Chemistry, 2020).

Like-named read-outs stand apart in the source and are kept apart here.

Assay [1] deals with T1, Pry1 (Saccharomyces cerevisiae, UniProt P47032).
T1 construct: made in house; host or cells: Escherichia coli BL21
T1 sequence (P47032 20-299): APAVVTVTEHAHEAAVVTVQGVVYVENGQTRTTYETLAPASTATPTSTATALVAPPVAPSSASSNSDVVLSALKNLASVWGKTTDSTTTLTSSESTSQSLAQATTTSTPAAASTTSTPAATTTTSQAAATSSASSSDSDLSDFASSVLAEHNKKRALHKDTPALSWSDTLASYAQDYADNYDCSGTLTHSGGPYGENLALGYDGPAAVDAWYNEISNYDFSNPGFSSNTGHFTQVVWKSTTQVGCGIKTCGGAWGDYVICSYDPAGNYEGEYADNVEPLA
Nature of the assay: Microscale thermophoresis. As to conditions: His-tagged Pry1, N/A where there is no binding, mean ± SD of three experiments. How it is done: (§1) Microscale thermophoresis was performed using a Monolith NT.115 from Nanotemper Technologies (Munich, Germany) (Seidel et al., [2012]; Shang et al., [2012]; Zillner et al., [2012]). His-tagged protein (Pry1 or Na-ASP-2) was fluorescently labeled using the RED-tris-NTA His-tag protein labeling kit (Nanotemper Technologies). Labeled protein (Pry1 or Na-ASP-2) was subsequently added to serial dilution of unlabeled ligand (ascarosides or their fatty acid moieties) in binding buffer (20 mM Tris pH 7.5, 30 mM NaCl, 0.05% Triton X-100). Each sample was loaded into standard glass capillaries, and measurements were performed at 60% laser power setting. Dissociation constant Kd was obtained by plotting the normalized fluorescence (Fnorm) against the logarithm of ligand concentration. Experiments were performed in triplicates and the Kd model of the MO Affinity Analysis software (Nanotemper Technologies, Munich, Germany) was used for data fitting.
(§2) Figure 5 Na-ASP-2 selectively binds ascr#3 but not oscr#10. Binding of ascarosides and their fatty acid moieties by Pry1 and Na-ASP-2 as measured by microscale thermophoresis. (A,G) Palmitic acid; (B,H) ascr#3; (C,I) oscr#10; (D,J) (R)-8-hydroxynonanoic acid; (E,K) (R, E)-8-hydroxynon-2-enoic acid; (F,L) 9-hydroxynonanoic acid. Pry1 binds palmitic acid and free hydroxylated nanonoic acids with similar affinities but binds neither the ascarosides ascr#3 and oscr#10. Na-ASP-2 binds palmitic acid, ascr#3 and free hydroxylated nanonoic acids with similar affinities but not oscr#10. The Kd values are indicated in each figure with N/A (not applicable) where there is no binding. Data represent mean ± SD of three independent experiments.
Background: Microscale thermophoresis detects binding through changes in fluorescence in a small temperature gradient.

The target of assay [2] is T2, Na-ASP-2 (Necator americanus, UniProt Q7Z1H1). Briefly: Microscale thermophoresis. The format is binding. The method, then: as §1, §2
T2 sequence (Q7Z1H1 entry or part of it): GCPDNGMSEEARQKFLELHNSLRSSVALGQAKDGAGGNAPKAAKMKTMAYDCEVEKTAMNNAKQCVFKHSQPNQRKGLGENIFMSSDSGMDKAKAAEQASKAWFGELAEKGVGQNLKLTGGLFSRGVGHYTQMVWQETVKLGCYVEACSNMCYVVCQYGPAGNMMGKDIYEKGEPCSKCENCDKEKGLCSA
Assay [3] deals with Bm-VAL-1. The arrangement: method as in earlier work. As to conditions: ref Kelleher et al., 2014, Darwiche et al., 2016, 2018, Asojo et al., read-out: Kd for palmitic acid; cited from earlier work.
Assay [4] concerns the target Pry1. Further details: method as in earlier work. Conditions: ref Kelleher et al., 2014, Darwiche et al., 2016, 2018, Asojo et al., read-out: Kd for palmitic acid; cited from earlier work.
Assay [5] deals with tablysin-15. As to conditions: ref Kelleher et al., 2014, Darwiche et al., 2016, 2018, Asojo et al., read-out: Kd for palmitic acid; cited from earlier work.
Assay [6] has as its target T2, Na-ASP-2. Nature of the assay: [3H]-palmitic acid radioligand binding and competition assay. As to conditions: for competition with [3H]-palmitic acid for binding to Na-ASP-2: 50 or 500 pmol unlabeled ligand vs 50 pmol [3H]-palmitic acid, 100 pmol Na-ASP-2. The method, then:
(§3) The radioligand binding assay was performed as described previously (Im et al., [2005]; Choudhary and Schneiter, [2012]). Hundred pmol of purified untagged CAP protein (Na-ASP-2 or Pry1) in binding buffer (20 mM Tris, pH 7.5, 30 mM NaCl, 0.05% Triton X-100) was incubated for 1 h at 30 °C with different concentrations of either [^3H]-cholesterol or [^3H]-palmitic acid. Protein was removed from unbound ligand by adsorption to Q-sepharose beads (GE Healthcare, USA), the beads were washed, protein was eluted and the protein-bound radioligand was quantified by scintillation counting. For competition binding assays, specified concentrations of unlabeled cholesterol, palmitic acid or ligands, were included in the binding reaction. Non-specific binding was determined by performing the assays without the addition of protein. Statistical significance of data was analyzed by multiple t-test (GraphPad Prism, La Jolla, CA).
Figure 3 Na-ASP-2 binds both cholesterol and free palmitic acid. (A) Ligand binding of [^3H]-cholesterol to Na-ASP-2. Purified Na-ASP-2 (100 pmol) was incubated with increasing concentrations of [^3H]-cholesterol (100–400 pmol), in absence and presence of 400 pmol of unlabeled cholesterol (chol). The protein was separated from the unbound ligand by adsorption to an anion-exchange matrix and the protein-bound radioligand was quantified by scintillation counting. […] Data represent mean ± SD of 3 independent experiments. […] Binding of [^3H]-cholesterol (50 pmol) to Na-ASP-2 (100 pmol) was assessed in the presence of the indicated concentrations of unlabeled cholesterol (chol). […] Binding of [^3H]-palmitic acid (50 pmol) to Na-ASP-2 (100 pmol) was assessed in the presence of the indicated concentration of unlabeled palmitic acid (pal). […]
(§4) Figure 4 Binding of ligands to Na-ASP-2 and Pry1. […] Binding of [^3H]-cholesterol (50 pmol) to Na-ASP-2 (100 pmol) was assessed in the presence of (50 pmol and 500 pmol) of unlabeled ascarosides or fatty acid moieties (1-5) (B) Fatty acids moieties and ascr#3 compete with [^3H]-palmitic acid for binding to Na-ASP-2. […]

Assay [7] concerns the target Bm-VAL-1. The arrangement: method as in earlier work. As to conditions: ref Kelleher et al., 2014, Darwiche et al., 2016, 2018, Asojo et al., read-out: cholesterol binding affinity; cited from earlier work.
Assay [8] deals with Sm-VAL-4. Further details: method as in earlier work. Conditions: ref Kelleher et al., 2014, Darwiche et al., 2016, 2018, Asojo et al., read-out: cholesterol binding affinity; cited from earlier work.
In assay [9] the target is T2, Na-ASP-2. Briefly: [3H]-cholesterol radioligand binding and competition assay. Conditions: for competition with [3H]-cholesterol for binding to Na-ASP-2: unlabeled ligand vs 50 pmol [3H]-cholesterol, 100 pmol Na-ASP-2. How it is done: as §3
Figure 3 Na-ASP-2 binds both cholesterol and free palmitic acid. (A) Ligand binding of [^3H]-cholesterol to Na-ASP-2. Purified Na-ASP-2 (100 pmol) was incubated with increasing concentrations of [^3H]-cholesterol (100–400 pmol), in absence and presence of 400 pmol of unlabeled cholesterol (chol). The protein was separated from the unbound ligand by adsorption to an anion-exchange matrix and the protein-bound radioligand was quantified by scintillation counting. […] Data represent mean ± SD of 3 independent experiments. (B) Competitive binding of unlabeled cholesterol (50 or 5,000 pmol) to Na-ASP-2. Binding of [^3H]-cholesterol (50 pmol) to Na-ASP-2 (100 pmol) was assessed in the presence of the indicated concentrations of unlabeled cholesterol (chol). Each data point is the average of duplicate assays and represents the amount of [^3H]-cholesterol bound relative to a control containing no unlabeled cholesterol. (C) Ligand binding of [^3H]-palmitic acid to Na-ASP-2. Purified Na-ASP-2 (100 pmol) was incubated with increasing concentrations of [^3H]-palmitic acid (100–400 pmol), in absence and presence of 400 pmol of unlabeled palmitic acid (pal). (D) Competitive binding of unlabeled palmitic acid (50 or 5,000 pmol) to Na-ASP-2. Binding of [^3H]-palmitic acid (50 pmol) to Na-ASP-2 (100 pmol) was assessed in the presence of the indicated concentration of unlabeled palmitic acid (pal). Each data point is the average of duplicate assays and represents the amount of [^3H]-palmitic acid bound relative to a control containing only labeled palmitic acid. […]
as §4

Assay [10] deals with Hp-VAL-4. The arrangement: method as in earlier work. Conditions: ref Kelleher et al., 2014, Darwiche et al., 2016, 2018, Asojo et al., read-out: cholesterol binding affinity; cited from earlier work.
Assay [11] deals with T1, Pry1. Briefly: [3H]-palmitic acid competition binding assay. Conditions: 100 pmol Pry1; for competition with [3H]-palmitic acid for binding to Pry1, excess ligand: excess unlabeled ligand (500 pmol) vs 50 pmol [3H]-palmitic acid; for competition with [3H]-palmitic acid for binding to Pry1: unlabeled ligand vs 50 pmol [3H]-palmitic acid. How it is done:
as §3
Figure 4 Binding of ligands to Na-ASP-2 and Pry1. (A) Free fatty acids and ascarosides fail to compete with [^3H]-cholesterol for binding to Na-ASP-2. Binding of [^3H]-cholesterol (50 pmol) to Na-ASP-2 (100 pmol) was assessed in the presence of (50 pmol and 500 pmol) of unlabeled ascarosides or fatty acid moieties (1-5) (B) Fatty acids moieties and ascr#3 compete with [^3H]-palmitic acid for binding to Na-ASP-2. (C) Only fatty acids moieties compete [^3H]-palmitic acid for binding to Pry1. Competitive binding was tested with either 50 or 500 pmol of the unlabeled ligands and 50 pmol of [^3H]-palmitic acid for binding to 100 pmol purified Na-ASP-2 or Pry1. The ascarosides tested are (1) (ascr#3) and (2) (oscr#10) while the fatty acids are 3 [(R)-8-hydroxynonanoic acid], 4 [(R, E)-8-hydroxynon-2-enoic acid], and 5 (9-hydroxynonanoic acid). Data represent mean ± SD of 3 independent experiments. Asterisks denote statistical significance relative to the control containing only the radiolabeled ligand and either purified Na-ASP-2 or Pry1. (**p < 0.001; *p < 0.01). n.s., not significant.

As to `CCCCCCCCCCCCCCCC(=O)O` [palmitic acid, reference compound], the Kd was 120 ± 1.2 µM in assay [1] (read-out: Kd); 220 ± 1 µM in assay [2]; 83 µM in assay [3]; 112 µM in [4]; 94 µM in [5]; 95 µM in [6]. The “competition with [3H]-palmitic acid for binding to Na-ASP-2” value in assay [6] was “reduced”.
Regarding `CC(C)CCC[C@@H](C)[C@H]1CC[C@H]2[C@@H]3CC=C4C[C@@H](O)CC[C@]4(C)[C@H]3CC[C@]12C` [cholesterol], the Kd is 0.9 µM in assay [7], 2.4 µM in [8], 2.1 µM in [9] and 1.53 µM in assay [10]. Moreover, the “competition with [3H]-cholesterol for binding to Na-ASP-2” value (“competition with [3H]-cholesterol” for short) in assay [9] is “reduced binding of the radioligand”.
With `O=C(O)CCCCCCCCO` [9-hydroxynonanoic acid], the Kd in assay [1] (read-out: Kd) was determined as 650 ± 1.7 µM; in assay [2], 230 ± 2.5 µM.
For the molecule `C[C@@H](O)CCCCCCC(=O)O` [(R)-8-hydroxynonanoic acid], the Kd in assay [1] (read-out: Kd) came to 600 ± 1.9 µM; in [2], 500 ± 2.3 µM.
For the molecule `C[C@H](CCCC/C=C/C(=O)O)O[C@@H]1O[C@@H](C)[C@H](O)C[C@H]1O` [ascr#3], the Kd result in [1] is “does not bind”. In assay [2], this molecule displayed a Kd of 142 µM. Also, the “competition with [3H]-cholesterol” value in [9] was “neither ascarosides [ascr#3 (1) and oscr#10 (2)] nor fatty acids (3-5) competed”. Also, in [11], the “competition with [3H]-palmitic acid for binding to Pry1, excess ligand” value was “could not be competed” and the “competition with [3H]-palmitic acid for binding to Pry1” value was “neither ascr#3 (1) nor oscr#10 (2) bound”. Further, in [6], the “competition with [3H]-palmitic acid for binding to Na-ASP-2” value is “competed”.
As for `C[C@@H]1O[C@@H](OCCCCCCCCC(=O)O)[C@H](O)C[C@H]1O` [oscr#10], the Kd entry in [1] is recorded as “does not bind”. For the same molecule, the Kd result in [2] (microscale thermophoresis, His-tagged Na-ASP-2, N/A where there is no binding, mean ± SD of three experiments) is “does not bind”. The “competition with [3H]-cholesterol” value in [9] is “neither ascarosides [ascr#3 (1) and oscr#10 (2)] nor fatty acids (3-5) competed”. In assay [11], the “competition with [3H]-palmitic acid for binding to Pry1, excess ligand” value is “could not be competed” and the “competition with [3H]-palmitic acid for binding to Pry1” value was “neither ascr#3 (1) nor oscr#10 (2) bound”.
Consider `C[C@@H](O)CCCC/C=C/C(=O)O` [(R,E)-8-hydroxynon-2-enoic acid, (R, E)-8-hydroxynon-2-enoic acid], for which the Kd in assay [1] (read-out: Kd) was 900 ± 0.9 µM; in [2] it was 290 ± 2 µM.
